Measured values reported in patent US8686178B2, “Derivative of 18β-glycyrrhetinic acid apt to suppress cancer cells” (Kaohsiung Medical University, priority 2011, dated 2014).

Key:
[1] = system: human bladder cancer cell line NTUB1; assay: Trial (A): cytotoxic effect, IC50 by median-effect analysis; type: cell-based; conditions: NTUB1 cells
Description: (§1) For the sake of proving therapeutic effects of the derivatives of 18β-glycyrrhetinic acid of the present invention, including 10, 11, 13-17 and 21-25, in treating of cancer, human bladder cancer cell line NTUB1, human prostate cancer cell line PC3 cataloged as CRL-1435 (reference to J. Formosan Med. Assoc. 1992; 91:608-13), and immortalized normal human urothelial cells SV-HUC1 cataloged as CRL-9520 are purchased from American Type Culture Collection (ATCC; Rockville, USA) and maintained in a culturing medium respectively till at a preferable density to carry out a serial of trials (comprising trial A to G) for evaluating cytotoxicities of the derivatives of 18β-glycyrrhetinic acid against cancer cells, and mechanisms thereof.
In the present invention, the NTUB1 and the PC3 is but not limit to be maintained in RPMI 1640 medium supplemented 10% fetal bovine serum (FBS), 100 unit/mL penicillin-G, 100 μg/mL streptomycin, and 2 mM L-glutamine, yet the SV-HUC1 is maintained in F12 medium supplemented with 10% fetal bovine serum (FBS), 100 unit/mL penicillin-G, 100 μg/mL streptomycin, and 2 mM L-glutamine, culturing at 37° C. in a humidified atmosphere containing 5% CO2 till at a density of 70% per well, followed by repeatedly suspending cells in each well with an ethylene diamine tetra-acetic acid buffer (EDTA buffer; Merck) and counting cell numbers.
In the present invention, the IC50 values of each group are presented as mean±standard deviation (SD).

NTUB1 cells [2] = assay: Trial (F): mitochondrial membrane potential (JC-1) by flow cytometry; type: cell-based, human; conditions: for R1 (%): 30 minutes, JC-1, NTUB1
Protocol: In trial (F), mitochondrial membrane potential (MMP) in NTUB1 cells is measured according to a journal article published by Martin et al., at 2009 in PloS one, in which a dysfunction of the mitochondria caused by ROS induced MPP decrease is supposed.
Referring to TABLE 6, the NTUB1 cells at a density of 3×10^5 cells/ml are prepared and assigned into 5 groups, including F1 to F5, to incubate in 10 μM carbonyl cyanide 3-chlorophenylhydrazone (CCCP), and 10, 25 and 50 μM of 25 respectively, for 30 minutes, followed by adding 1 μM of 5,5′,6,6′-tetrachloro-1,1′,3,3′-tetraethylbenzimidaolylcarbocyanine iodide (JC-1) (Molecular Probes, Eugene, Oreg., USA) in each group. Then, the NTUB1 cells in each group are washed with PBS buffer for 3 times, collected in PBS/2% BSA, washed twice by centrifugating at 800 g, 5 minutes and resuspending in 0.3 mL PBS/2% BSA, and finally analyzed by a FACSCalibur flow cytometer (Becton Dickinson), with the FACSCalibur flow cytometer determining and calculating a ratio of JC-1 aggregates (red fluorescence) to JC-1 monomers (green fluorescence) based on levels of MMP in each group.

NTUB1 = assay: Trial (B): MTT cytotoxicity assay, 72 hours; type: cell-based, human; conditions: 0-50 μM
Description: as §1, with “thereof. […]” for “thereof.”
(§2) In trial (B), the cell lines of NTUB1, PC3, and SV-HUC1 are prepared in 96-well plates and co-incubated with the compounds 21, 23 or 25 in various concentrations of 0, 0.3, 1, 3, 5, 10, 30 and 50 μM, to analyze cytotoxic effects against either cancer cell or normal cells via a modified 3-[4,5-dimethylthiazol-2-yl]-2,5-diphenyltetrazolium bromide (MTT, Sigma Chemical Co.) assay. […] At co-incubation, 50 μL of MTT (2 mg/mL in PB) is added to each well to react for 3 hours, followed by centrifugating the 96-well plates at 1000 g for 10 min to remove supernatant, adding 150 μL DMSO in each well of the 96-well plates, and determining viability rates of the NTUB1, PC3, and SV-HUC1 cells separately by an absorbance spectrometry at 540 nm with a MRX (DYNEXCO) microplate reader.

NTUB1 cells [3] = assay: Trial (D): production of reactive oxygen species by flow cytometry (DCF); type: cell-based, human; conditions: 24 hours
Protocol: In trial (D), production of reactive oxygen species (ROS) is analyzed by flow cytometry, since the levels of ROS play an important role in apoptosis.
Referring to TABLE 4, the NTUB1 cells at a density of 8×10^5 cells/ml are prepared and assigned into 5 groups, including D1 to D5, to incubate in various medium for 24 hours. Next, 10 μM of 2,7-dichlorodihydrofluorescein diacetate (H2DCFHDA; Molecular Probes, Eugene, Oreg.) is added to the NTUB1 cells of each group 30 minutes prior than harvest, followed by collecting the NTUB1 cells of each group respectively and washing with PBS buffer. With such arrangement, the 2,7-dichlorodihydrofluorescein diacetate will penetrate into cells, interact with esterase, and degrade to 2,7-dichlorofluorescein (DCF) having green fluorescein, which can be determined by flow cytometer. In trial (D), green fluorescence of intracellular DCF in each group are analyzed immediately by FACScan flow cytometer (Becton Dickinson) at a wavelength of 525 nm.

[4] = system: human prostate cancer cell line PC3; assay: Trial (B): MTT cytotoxicity assay, 72 hours; type: cell-based; conditions: 0-50 μM
Description: as §1, with “thereof. […]” for “thereof.”
as §2

[5] = system: immortalized normal human urothelial cells SV-HUC1; assay: Trial (B): MTT assay on normal cells, 72 hours; type: cell-based; conditions: 0-50 μM
Description: as §1, with “thereof. […]” for “thereof.”
as §2

Structure (SMILES): C=C(C)[C@@H]1CC[C@]2(C)[C@H](C(=O)C=C3[C@@H]4C[C@@](C)(C(=O)NC(C)C)CC[C@]4(C)CC[C@]32C)[C@@]1(C)CCC(=O)NC(C)C [Compound 25, 3,4-seco-11-oxo-18β-olean-4(23),12-dien-3,30-diisopropyl carbamate]
- cytotoxic effect against cancer cell ([1]; with reference to TABLE 2): significantly suppress the growth of cancer cells with a lower concentrate
- IC50 ([1]; mean ± SD): 4.76 ± 1.15 µM
- R1 (%) (NTUB1 cells [2]; 10 μM): 94.14%
- R1 (%) (NTUB1 cells [2]; 25 μM): 87.17%
- R1 (%) (NTUB1 cells [2]; 50 μM): 55.65%
- mitochondrial membrane potential (NTUB1 cells [2]; NTUB1, TABLE 6): decrease MPP in cancer cells in a dose-dependent manner
- cytotoxic effect (survival ratio, FIGS. 4-6) (NTUB1): cytotoxic effects against to the cancer cells in a dose-dependent manner, particularly in against to NTUB1 cell
- ROS (%) (NTUB1 cells [3]; 10 μM): 66.1%
- ROS (%) (NTUB1 cells [3]; 25 μM): 85.6%
- cytotoxic effect (survival ratio, FIGS. 4-6) [4]: cytotoxic effects against to the cancer cells in a dose-dependent manner
- effect on growth of normal cells (survival ratio, FIGS. 4-6) [5]: enhance the growth of SV-HUC1 cells
